Measurements taken from ChEMBL document CHEMBL3351663, “Discovery of acylurea isosteres of 2-acylaminothiadiazole in the azaxanthene series of glucocorticoid receptor agonists” (Bioorg Med Chem Lett, 2014).

Experiments:
Glucocorticoid receptor [1] = target: T1, Glucocorticoid receptor (Homo sapiens, UniProt P04150); assay: Binding affinity to glucocorticoid receptor (unknown origin) by fluorescence polarization assay
T1 sequence (P04150 whole entry): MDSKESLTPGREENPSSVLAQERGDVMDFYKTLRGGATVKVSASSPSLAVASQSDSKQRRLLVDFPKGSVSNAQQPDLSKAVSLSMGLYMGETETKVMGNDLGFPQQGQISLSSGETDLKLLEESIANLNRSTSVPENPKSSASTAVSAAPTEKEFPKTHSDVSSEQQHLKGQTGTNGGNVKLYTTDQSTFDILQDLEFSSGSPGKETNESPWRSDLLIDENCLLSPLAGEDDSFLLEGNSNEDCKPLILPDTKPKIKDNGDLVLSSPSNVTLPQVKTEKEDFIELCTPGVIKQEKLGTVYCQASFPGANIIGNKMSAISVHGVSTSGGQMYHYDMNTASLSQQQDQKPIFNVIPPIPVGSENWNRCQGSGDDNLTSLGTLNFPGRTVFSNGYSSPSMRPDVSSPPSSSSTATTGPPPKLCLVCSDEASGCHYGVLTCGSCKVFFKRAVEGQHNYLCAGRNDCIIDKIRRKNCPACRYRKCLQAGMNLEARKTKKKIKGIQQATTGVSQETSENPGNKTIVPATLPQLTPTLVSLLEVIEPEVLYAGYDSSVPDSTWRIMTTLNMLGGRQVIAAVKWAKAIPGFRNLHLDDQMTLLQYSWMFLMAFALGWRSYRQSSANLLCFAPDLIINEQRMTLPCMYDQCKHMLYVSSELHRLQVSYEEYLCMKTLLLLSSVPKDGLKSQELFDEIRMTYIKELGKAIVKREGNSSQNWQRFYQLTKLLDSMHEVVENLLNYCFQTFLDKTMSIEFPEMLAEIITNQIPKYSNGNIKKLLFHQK

Glucocorticoid receptor [2] = target: T1, Glucocorticoid receptor; assay: Agonist activity at glucocorticoid receptor in human A549 cells assessed as E-selectin transrepression by luciferase reporter gene assay; type: cell-based
Glucocorticoid receptor [3] = target: T1, Glucocorticoid receptor; assay: Agonist activity at glucocorticoid receptor in human HeLa cells assessed as NP-1 transactivation by luciferase reporter gene assay; type: cell-based
Liver = assay: Metabolic stability in mouse liver microsomes assessed as compound remaining
Progesterone receptor = target: T2, Progesterone receptor (Homo sapiens, UniProt P06401); assay: Binding affinity to progesterone receptor (unknown origin) by fluorescence polarization assay
T2 sequence (P06401 whole entry): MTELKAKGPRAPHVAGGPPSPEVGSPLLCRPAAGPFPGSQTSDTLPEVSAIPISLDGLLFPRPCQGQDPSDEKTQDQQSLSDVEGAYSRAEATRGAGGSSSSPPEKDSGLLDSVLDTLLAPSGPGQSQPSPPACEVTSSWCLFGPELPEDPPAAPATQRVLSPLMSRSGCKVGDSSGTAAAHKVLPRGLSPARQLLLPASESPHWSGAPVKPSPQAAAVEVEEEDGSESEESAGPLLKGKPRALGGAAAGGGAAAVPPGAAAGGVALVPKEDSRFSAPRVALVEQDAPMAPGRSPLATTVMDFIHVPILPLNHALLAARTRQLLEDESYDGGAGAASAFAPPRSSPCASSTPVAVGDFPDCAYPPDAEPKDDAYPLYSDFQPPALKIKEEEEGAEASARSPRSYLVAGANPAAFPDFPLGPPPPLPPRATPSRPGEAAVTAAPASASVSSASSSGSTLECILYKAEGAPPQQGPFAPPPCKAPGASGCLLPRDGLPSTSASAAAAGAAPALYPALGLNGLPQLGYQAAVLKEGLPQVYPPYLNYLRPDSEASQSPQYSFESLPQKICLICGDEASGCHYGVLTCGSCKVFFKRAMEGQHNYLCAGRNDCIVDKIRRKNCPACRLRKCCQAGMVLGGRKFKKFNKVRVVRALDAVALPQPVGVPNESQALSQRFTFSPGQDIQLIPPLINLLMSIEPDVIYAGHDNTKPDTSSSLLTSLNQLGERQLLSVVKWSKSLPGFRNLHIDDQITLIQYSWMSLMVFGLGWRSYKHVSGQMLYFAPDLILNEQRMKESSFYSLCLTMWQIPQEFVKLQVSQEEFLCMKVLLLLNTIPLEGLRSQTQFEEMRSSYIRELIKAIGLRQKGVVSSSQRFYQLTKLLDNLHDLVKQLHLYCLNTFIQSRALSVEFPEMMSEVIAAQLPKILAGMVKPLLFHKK

Liver microsome [4] = assay: Metabolic stability in human liver microsomes assessed as compound remaining
Liver microsome [5] = assay: Metabolic stability in rat liver microsomes assessed as compound remaining
Glucocorticoid receptor [6] = target: T1, Glucocorticoid receptor; assay: Agonist activity at glucocorticoid receptor in human A549 cells assessed as AP-1 transrepression by luciferase reporter gene assay; type: cell-based
Glucocorticoid receptor [7] = target: T1, Glucocorticoid receptor; design: species or system Blood
[8] = Oral bioavailability in dog at 5 mg/kg; type: ADME, organism-based, Canis lupus familiaris; conditions: in vivo
Rattus norvegicus [9] = organism: Rattus norvegicus; assay: animal or person; type: functional; conditions: Lewis, route oral
[10] = Half life in rat liver microsomes; type: ADME
[11] = Half life in human liver microsomes; conditions: liver microsomes
[12] = Clearance in rat at 1 mg/kg, iv; type: ADME, organism-based; design: dose 1 mg/kg, route intravenous; conditions: in vivo
[13] = Clearance in iv dosed dog; type: ADME, organism-based, Canis lupus familiaris; conditions: in vivo
[14] = Half life in dog liver microsomes; type: ADME, Canis lupus familiaris
[15] = Oral bioavailability in rat at 10 mg/kg; type: ADME, organism-based; conditions: in vivo
[16] = Drug uptake in Lewis rat serum at 10 mg/kg, po after 3 hrs; type: ADME, organism-based; design: dose 10 mg/kg, route oral; conditions: read-out: Drug uptake
Rattus norvegicus [17] = assay: Antiinflammatory activity in Lewis rat assessed as inhibition of LPS-induced TNF-alpha production at 30 mg/kg, po administered 90 mins prior to LPS challenge measured after 90 mins relative to vehicle-treated control; type: functional

Row | SMILES | Ki (Glucocorticoid receptor [1]) | EC50 (Glucocorticoid receptor [2]) | EC50 (Glucocorticoid receptor [3]) | Stability (Liver) | Ki (Progesterone receptor) | Stability (Liver microsome [4]) | Stability (Liver microsome [5]) | EC50 (Glucocorticoid receptor [6]) | EC50 (Glucocorticoid receptor [7]) | also measured
1 | CC(C)(C(=O)NC(N)=O)[C@@H]1c2ccc(-c3ccc(C(=O)N4CC[C@H](F)C4)cc3)nc2Oc2c(F)cccc21 | 1.2 nM | 0.6 nM | 1.3 nM | 77% | 33300 nM | 56% | 67% | 0.8 nM |  | 
2 | CC(=O)NC(=O)C(C)(C)[C@@H]1c2ccc(-c3ccc(C(=O)N4CCOCC4)cc3)nc2Oc2c(F)cccc21 | 5.9 nM | 3.2 nM | 14 nM |  | 268 nM |  |  | 5 nM | 88 nM | 
3 | CC(C)Oc1ccc(-c2ccc3c(n2)Oc2c(F)cccc2[C@@H]3C(C)(C)C(=O)NC(N)=O)cn1 | 0.7 nM | 3.8 nM | 59.2 nM | 86% | 313 nM | 97% | 58% | 6.7 nM | 355 nM | bioavailability [8]: 82%; inhibition in vivo at 10 mg/kg (Rattus norvegicus [9]): 69%; half-life [10]: 0.233 h; half-life [11]: 3.18 h; clearance [12]: 20.8 mL/min/kg; clearance [13]: 9 mL/min/kg; half-life [14]: 1.63 h; bioavailability [15]: 25.7%; concentration at 3 h [16]: 500 nM
4 | CC(C)(C(=O)NC(N)=O)[C@@H]1c2ccc(-c3ccc(C(=O)N4CCOCC4)nc3)nc2Oc2c(F)cccc21 |  |  |  |  | 22.7 nM |  |  |  |  | 
5 | CC(=O)NC(=O)C(C)(C)[C@@H]1c2ccc(-c3ccc(C(=O)N4CCCC4)cc3)nc2Oc2c(F)cccc21 | 2.5 nM | 3.6 nM | 27 nM |  | 12400 nM |  |  | 5.1 nM | 218 nM | 
6 | CCNC(=O)NC(=O)C(C)(C)[C@@H]1c2ccc(-c3ccc(C(=O)N4CCOCC4)cc3)nc2Oc2c(F)cccc21 |  |  |  |  | 2910 nM |  |  |  |  | 
7 | CNC(=O)NC(=O)C(C)(C)[C@@H]1c2ccc(-c3ccc(C(=O)N4CCOCC4)cc3)nc2Oc2c(F)cccc21 | 6.9 nM | 16.1 nM | 302 nM |  | 1170 nM |  |  | 10.7 nM | 1040 nM | 
8 | CC(C)(C(=O)NC(=O)NC1CCC1)[C@@H]1c2ccc(-c3ccc(C(=O)N4CCOCC4)cc3)nc2Oc2c(F)cccc21 | 8.7 nM | 32.8 nM | 676 nM |  | 5340 nM |  |  | 17.5 nM | 2380 nM | 
9 | CC(C)(C(=O)NC(=O)C1CCC1)[C@@H]1c2ccc(-c3ccc(C(=O)N4CCOCC4)cc3)nc2Oc2c(F)cccc21 | 8.7 nM | 32.8 nM | 586 nM |  | 5340 nM |  |  | 17.5 nM | 2380 nM | 
10 | CC(C)(C(=O)NC(N)=O)[C@H]1c2ccccc2Oc2nc(-c3ccc(C(=O)N4CCCC4)cc3)ccc21 | 1.9 nM | 5 nM | 49.3 nM | 76% | 2320 nM | 78% | 49% | 8.7 nM | 207 nM | 
11 | C[C@]12C=CC(=O)C=C1CC[C@@H]1[C@@H]2[C@@H](O)C[C@@]2(C)[C@H]1CC[C@]2(O)C(=O)CO [PREDNISOLONE] |  |  |  |  |  |  |  |  |  | inhibition in vivo at 30 mg/kg (Rattus norvegicus [17]): 75%
12 | CC(C)C(=O)NC(=O)C(C)(C)[C@@H]1c2ccc(-c3ccc(C(=O)N4CCOCC4)cc3)nc2Oc2c(F)cccc21 |  | 74.8 nM | 1040 nM |  | 5040 nM |  |  | 23.7 nM | 389 nM | 
13 | CCN(C)C(=O)c1ccc(-c2ccc3c(n2)Oc2ccccc2[C@@H]3C(C)(C)C(=O)Nc2nncs2)cc1 | 1.6 nM | 6.89 nM | 98.5 nM |  | 1830 nM |  |  | 17.7 nM | 379 nM | 
14 | CC(C)(C(=O)NC(N)=O)[C@@H]1c2ccc(-c3ccc(C(=O)N4CCCC4)nc3)nc2Oc2c(F)cccc21 | 2 nM | 12.2 nM | 113 nM | 86% | 1360 nM | 73% | 86% | 16.5 nM | 211 nM | 
15 | CN(C)C(=O)c1ccc(-c2ccc3c(n2)Oc2ccccc2[C@@H]3C(C)(C)C(=O)Nc2nncs2)cc1 | 1.9 nM | 33.8 nM | 242 nM |  | 1530 nM |  |  | 33.2 nM | 830 nM | 
16 | CC(C)(C(=O)NC(=O)C1CC1)[C@@H]1c2ccc(-c3ccc(C(=O)N4CCOCC4)cc3)nc2Oc2c(F)cccc21 | 8.5 nM | 17.6 nM | 177 nM |  | 2040 nM |  |  | 18.4 nM | 418 nM | 
17 | CC(C)(C(=O)NC(N)=O)[C@@H]1c2ccc(-c3ccc(C(=O)N4CCCC4)cc3)nc2Oc2c(F)cccc21 | 0.7 nM | 1.4 nM | 5.3 nM | 73% | 604 nM | 89% | 71% | 1.6 nM |  | 
18 | CN(C)C(=O)NC(=O)C(C)(C)[C@@H]1c2ccc(-c3ccc(C(=O)N4CCOCC4)cc3)nc2Oc2c(F)cccc21 | 110 nM | 203 nM | 8910 nM |  | 10600 nM |  |  | 907 nM |  | 
19 | CC(C)(C(=O)NC(N)=O)[C@H]1c2ccccc2Oc2nc(-c3ccc(C(=O)N4CCOCC4)cc3)ccc21 | 1.5 nM | 4.8 nM | 11 nM | 75% | 282 nM | 95% | 86% | 6.2 nM | 3050 nM | 
20 | CC(C)(O)c1ccc(-c2ccc3c(n2)Oc2c(F)cccc2[C@@H]3C(C)(C)C(=O)NC(N)=O)cn1 | 4 nM | 14.7 nM | 107 nM | 76% | 106 nM | 73% | 83% | 21.9 nM | 199 nM | 
21 | C[C@@H]1C[C@H]2[C@@H]3CCC4=CC(=O)C=C[C@]4(C)[C@@]3(F)[C@@H](O)C[C@]2(C)[C@@]1(O)C(=O)CO [DEXAMETHASONE] |  |  |  |  | 778 nM |  |  |  |  | 
22 | CC(=O)NC(=O)C(C)(C)[C@@H]1c2ccc(-c3ccc(C(=O)N(C)C)cc3)nc2Oc2c(F)cccc21 | 69.4 nM | 109 nM | 1050 nM |  | 12400 nM |  |  | 213 nM | 1890 nM | 
23 | COc1ccc(CNC(=O)NC(=O)C(C)(C)[C@@H]2c3ccc(-c4ccc(C(=O)N5CCOCC5)cc4)nc3Oc3c(F)cccc32)cc1 |  |  |  |  | 623 nM |  |  |  |  | 
